What is called IC50 is the concentration that gives 50% inhibition. What is called Papp A→B is how fast a substance crosses the layer from the apical side. In general, efflux ratio refers to the permeability from basolateral to apical divided by that in the opposite direction, in the common usage. Usually inhibition stands for the change of the read-out against control, counted positive when it falls. The low end stands for a response near the control, the high end for a response far below the control.

The structures appear in SMILES notation. Activity calls are given as the source filed them. The calls are words filed in the database; no cut-off is given here.

Data set [1] has as its target Phosphatidylinositol 4,5-bisphosphate 3-kinase catalytic subunit beta isoform (Homo sapiens, UniProt P42338). Briefly: Inhibition of human PI3Kbeta by HTRF assay. To be noted: read-out: Ki(app).
The target of data set [2] is T1, Phosphatidylinositol 4,5-bisphosphate 3-kinase catalytic subunit delta isoform (Homo sapiens, UniProt O00329).
T1 sequence (O00329 whole entry): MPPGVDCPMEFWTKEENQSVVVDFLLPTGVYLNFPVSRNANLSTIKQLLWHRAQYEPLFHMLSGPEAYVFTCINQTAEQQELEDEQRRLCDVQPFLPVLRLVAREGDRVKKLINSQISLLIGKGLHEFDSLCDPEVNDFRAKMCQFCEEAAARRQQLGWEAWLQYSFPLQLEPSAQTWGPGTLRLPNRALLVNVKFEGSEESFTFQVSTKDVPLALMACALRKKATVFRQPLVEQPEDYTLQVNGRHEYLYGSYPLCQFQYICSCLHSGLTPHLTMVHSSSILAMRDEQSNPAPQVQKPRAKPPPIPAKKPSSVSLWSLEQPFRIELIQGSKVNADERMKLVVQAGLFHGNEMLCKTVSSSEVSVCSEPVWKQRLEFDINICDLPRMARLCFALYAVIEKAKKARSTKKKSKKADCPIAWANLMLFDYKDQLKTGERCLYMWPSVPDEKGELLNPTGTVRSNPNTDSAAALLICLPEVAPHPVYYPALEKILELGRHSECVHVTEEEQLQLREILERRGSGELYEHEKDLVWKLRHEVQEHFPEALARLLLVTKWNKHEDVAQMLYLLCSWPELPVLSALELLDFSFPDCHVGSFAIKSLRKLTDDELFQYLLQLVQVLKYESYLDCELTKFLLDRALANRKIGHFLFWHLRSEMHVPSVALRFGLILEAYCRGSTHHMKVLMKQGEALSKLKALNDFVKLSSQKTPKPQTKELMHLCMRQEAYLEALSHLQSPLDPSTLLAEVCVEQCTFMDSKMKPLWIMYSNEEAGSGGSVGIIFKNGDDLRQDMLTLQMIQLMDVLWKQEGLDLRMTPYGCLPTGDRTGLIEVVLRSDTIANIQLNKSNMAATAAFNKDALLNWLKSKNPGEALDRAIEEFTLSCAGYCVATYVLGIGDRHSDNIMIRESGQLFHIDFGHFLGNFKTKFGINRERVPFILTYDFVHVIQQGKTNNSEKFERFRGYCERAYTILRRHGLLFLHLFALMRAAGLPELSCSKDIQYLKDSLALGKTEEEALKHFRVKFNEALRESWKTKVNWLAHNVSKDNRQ
Put plainly: Inhibition of human PI3Kdelta by HTRF assay. To be noted: read-out: Ki(app). In general terms: Time-resolved FRET reads energy transfer from a long-lived donor to a nearby acceptor.

In data set [3] the target is Phosphatidylinositol 4,5-bisphosphate 3-kinase catalytic subunit gamma isoform (Homo sapiens, UniProt P48736). Briefly: Inhibition of PI3Kgamma assessed as accumulation of ADP. Conditions: read-out: Ki(app).
Data set [4] has as its system Mus musculus. Briefly: Down regulation of phosphorylated AKT at S473 level in GEMM mouse lung tumor model driven by KRasG12V oncogenic mutation tumor at 10 mg/kg, po after 1 hr by Western blot analysis. Format: functional. (A western blot detects proteins with antibodies after separation by electrophoresis.)
For data set [5], the system named is Mus musculus. Put plainly: Antitumor activity in GEMM mouse lung tumor model driven by KRasG12V oncogenic mutation assessed as tumor growth inhibition at 25 mg/kg, po qd for weekly 5 days for 3 weeks. To be noted: read-out: GI. Format: functional.
For data set [6], the species on record is Mus musculus. Put plainly: Reduction of [18F]-FDG uptake in GEMM mouse lung tumor model driven by KRasG12V oncogenic mutation tumor after 45 mins by PET-CT analysis. In kind it is functional. To be noted: Neoplasm.
The test system of data set [7] is Lung. Put plainly: Reduction of [18F]-FDG uptake in GEMM mouse lung tumor model driven by KRasG12V oncogenic mutation lung after 45 mins by PET-CT analysis. Format: functional, tissue-based.
Data set [8] relates to BT-474. Put plainly: Antitumor activity against human BT474 cells with PI3Kalpha […] mutated xenografted in MF-1 nude mouse assessed as tumor growth inhibition at 10 mg/kg, po qd for weekly 5 days for 2 weeks. Format: functional. Conditions: read-out: GI.
The target in data set [9] is T2, Phosphatidylinositol 4,5-bisphosphate 3-kinase catalytic subunit alpha isoform (Homo sapiens, UniProt P42336). Put plainly: Inhibition of PI3Kalpha-mediated AKT phosphorylation at Ser473 in human U2OS cells by Western blot analysis. Format: cell-based.
In data set [10] the target is Serine/threonine-protein kinase mTOR (Homo sapiens, UniProt P42345). Put plainly: Inhibition of mTOR.
The target in data set [11] is T2, Phosphatidylinositol 4,5-bisphosphate 3-kinase catalytic subunit alpha isoform. Briefly: Inhibition of PI3Kalpha assessed as accumulation of ADP.
For data set [12], the species on record is Homo sapiens. Briefly: Selectivity ratio of IC50 for mTOR to IC50 for PI3Kalpha.
In data set [13] the test system is MDR1 (P-gp), human. Briefly: Apparent permeability from apical to basolateral side in MDCK cells over expressing human MDR1 at 2 uM after 150 mins. Format: ADME, cell-based, Canis lupus familiaris. To be noted: dog.
Data set [14] has as its system MDR1 (P-gp), human. Put plainly: Efflux ratio of permeability from basolateral to apical side over apical to basolateral side in MDCK cells over expressing human MDR1 at 2 uM after 150 mins. In kind it is ADME, cell-based, Canis lupus familiaris. Conditions: dog.
Data set [15] deals with CYP3A4 (Homo sapiens, UniProt P08684). Briefly: Inhibition of CYP3A4 at 10 uM. In kind it is ADME.
Data set [16] has as its target CYP2D6 (Homo sapiens, UniProt P10635). Briefly: Inhibition of CYP2D6 at 10 uM. In kind it is ADME.
The target of data set [17] is CYP2C9 (Homo sapiens, UniProt P11712). Put plainly: Inhibition of CYP2C9 at 10 uM. In kind it is ADME.
The target of data set [18] is T3, CYP1A2 (Homo sapiens, UniProt P05177).
T3 sequence (P05177 whole entry): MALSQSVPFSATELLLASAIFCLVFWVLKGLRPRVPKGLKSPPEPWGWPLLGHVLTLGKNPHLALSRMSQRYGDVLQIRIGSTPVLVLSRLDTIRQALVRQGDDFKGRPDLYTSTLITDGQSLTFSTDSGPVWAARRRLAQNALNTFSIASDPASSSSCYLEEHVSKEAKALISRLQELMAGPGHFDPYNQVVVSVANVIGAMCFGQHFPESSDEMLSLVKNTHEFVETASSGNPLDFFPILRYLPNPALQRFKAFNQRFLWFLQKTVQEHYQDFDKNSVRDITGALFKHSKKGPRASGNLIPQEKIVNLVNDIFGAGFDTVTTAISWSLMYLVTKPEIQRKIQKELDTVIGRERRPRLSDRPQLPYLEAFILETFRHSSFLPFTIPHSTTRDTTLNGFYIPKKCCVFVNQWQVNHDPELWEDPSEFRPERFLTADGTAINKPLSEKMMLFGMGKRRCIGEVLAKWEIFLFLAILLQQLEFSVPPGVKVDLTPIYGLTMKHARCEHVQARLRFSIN
Put plainly: Inhibition of CYP1A2 at 10 uM. In kind it is ADME.

The target of data set [19] is CYP2C19 (Homo sapiens, UniProt P33261). Briefly: Inhibition of CYP2C19 at 10 uM. Format: ADME.
Data set [20] is described as follows: Metabolic stability in mouse liver microsomes assessed as compound remaining at 1 uM after 15 mins. In kind it is ADME, Microsome. Conditions: read-out: Stability.
Data set [21] is described as follows: Metabolic stability in human liver microsomes assessed as compound remaining at 1 uM after 15 mins. Conditions: read-out: Stability. Format: ADME, Microsome. (Microsomes from liver hold many membrane-bound enzymes, among them those of drug oxidation.)

T2 sequence (P42336 whole entry, canonical isoform): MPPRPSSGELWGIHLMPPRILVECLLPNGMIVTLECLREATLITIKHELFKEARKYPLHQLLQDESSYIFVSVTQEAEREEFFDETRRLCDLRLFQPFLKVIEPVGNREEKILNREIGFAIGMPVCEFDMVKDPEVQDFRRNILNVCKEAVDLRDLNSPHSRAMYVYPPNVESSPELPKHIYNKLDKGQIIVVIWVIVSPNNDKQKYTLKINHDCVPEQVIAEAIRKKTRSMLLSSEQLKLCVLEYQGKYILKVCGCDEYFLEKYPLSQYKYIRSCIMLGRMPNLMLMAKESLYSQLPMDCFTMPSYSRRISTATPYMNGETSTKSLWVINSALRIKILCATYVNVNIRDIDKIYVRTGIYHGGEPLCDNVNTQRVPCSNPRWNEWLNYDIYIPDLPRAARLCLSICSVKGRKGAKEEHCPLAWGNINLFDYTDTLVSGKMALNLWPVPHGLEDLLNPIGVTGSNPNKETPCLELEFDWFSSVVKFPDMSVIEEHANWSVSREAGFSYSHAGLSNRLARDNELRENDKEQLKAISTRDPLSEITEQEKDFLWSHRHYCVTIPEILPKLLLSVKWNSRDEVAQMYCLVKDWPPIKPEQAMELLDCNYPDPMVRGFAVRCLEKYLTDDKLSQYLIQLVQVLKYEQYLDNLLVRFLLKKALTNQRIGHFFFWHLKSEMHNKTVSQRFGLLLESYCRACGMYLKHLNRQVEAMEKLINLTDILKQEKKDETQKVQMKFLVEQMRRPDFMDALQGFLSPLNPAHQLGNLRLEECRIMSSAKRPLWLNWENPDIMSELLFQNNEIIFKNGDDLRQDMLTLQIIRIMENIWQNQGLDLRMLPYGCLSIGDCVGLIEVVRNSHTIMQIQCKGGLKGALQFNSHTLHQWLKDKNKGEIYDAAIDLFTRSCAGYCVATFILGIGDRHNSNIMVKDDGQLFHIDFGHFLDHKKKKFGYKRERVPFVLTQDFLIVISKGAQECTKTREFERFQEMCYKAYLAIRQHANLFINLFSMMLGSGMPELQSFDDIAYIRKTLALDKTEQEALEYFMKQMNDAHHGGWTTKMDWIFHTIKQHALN
Chain of CYP2C19 (P33261 whole entry): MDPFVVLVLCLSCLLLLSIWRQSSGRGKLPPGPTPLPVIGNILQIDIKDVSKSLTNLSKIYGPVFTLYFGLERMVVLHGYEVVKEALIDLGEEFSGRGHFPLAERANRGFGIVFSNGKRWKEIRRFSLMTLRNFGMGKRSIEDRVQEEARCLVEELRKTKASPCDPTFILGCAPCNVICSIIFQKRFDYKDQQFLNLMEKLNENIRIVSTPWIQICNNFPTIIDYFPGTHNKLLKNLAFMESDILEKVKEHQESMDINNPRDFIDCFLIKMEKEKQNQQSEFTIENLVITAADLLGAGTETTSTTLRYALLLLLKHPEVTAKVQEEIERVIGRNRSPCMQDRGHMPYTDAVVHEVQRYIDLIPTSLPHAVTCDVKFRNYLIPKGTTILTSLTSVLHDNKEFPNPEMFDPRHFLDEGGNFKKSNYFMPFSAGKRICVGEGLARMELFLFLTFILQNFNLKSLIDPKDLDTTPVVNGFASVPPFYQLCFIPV
Chain of Phosphatidylinositol 4,5-bisphosphate 3-kinase catalytic subunit beta isoform (P42338 whole entry, canonical isoform): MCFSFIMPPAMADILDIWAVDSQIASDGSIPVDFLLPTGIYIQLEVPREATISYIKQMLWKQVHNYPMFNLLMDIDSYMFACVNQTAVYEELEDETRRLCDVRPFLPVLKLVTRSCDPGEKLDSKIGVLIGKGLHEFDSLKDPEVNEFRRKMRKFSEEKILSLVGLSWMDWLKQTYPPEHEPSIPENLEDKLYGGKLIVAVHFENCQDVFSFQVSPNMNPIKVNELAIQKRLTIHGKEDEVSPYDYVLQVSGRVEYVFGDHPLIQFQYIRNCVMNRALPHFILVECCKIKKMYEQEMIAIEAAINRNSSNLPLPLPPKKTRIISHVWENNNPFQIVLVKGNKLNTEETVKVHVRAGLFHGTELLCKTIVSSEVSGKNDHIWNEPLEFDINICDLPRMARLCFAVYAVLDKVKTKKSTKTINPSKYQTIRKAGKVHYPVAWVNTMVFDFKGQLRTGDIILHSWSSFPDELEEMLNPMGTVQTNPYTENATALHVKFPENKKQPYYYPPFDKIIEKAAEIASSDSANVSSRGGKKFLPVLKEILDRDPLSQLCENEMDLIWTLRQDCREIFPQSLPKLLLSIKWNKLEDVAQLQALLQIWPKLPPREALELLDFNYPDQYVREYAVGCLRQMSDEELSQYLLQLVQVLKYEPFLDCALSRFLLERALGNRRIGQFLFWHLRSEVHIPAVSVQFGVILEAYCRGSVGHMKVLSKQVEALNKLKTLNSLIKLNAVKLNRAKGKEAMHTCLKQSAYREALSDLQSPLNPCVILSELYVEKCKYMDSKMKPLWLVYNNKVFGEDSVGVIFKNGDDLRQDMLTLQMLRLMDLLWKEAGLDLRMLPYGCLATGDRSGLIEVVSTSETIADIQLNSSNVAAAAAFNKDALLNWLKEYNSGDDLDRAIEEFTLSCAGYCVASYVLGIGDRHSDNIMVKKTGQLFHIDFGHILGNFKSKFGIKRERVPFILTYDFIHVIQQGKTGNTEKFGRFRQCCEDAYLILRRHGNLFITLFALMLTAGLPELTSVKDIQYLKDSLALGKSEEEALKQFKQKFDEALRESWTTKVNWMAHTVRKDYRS
Chain of Phosphatidylinositol 4,5-bisphosphate 3-kinase catalytic subunit gamma isoform (P48736 whole entry, canonical isoform): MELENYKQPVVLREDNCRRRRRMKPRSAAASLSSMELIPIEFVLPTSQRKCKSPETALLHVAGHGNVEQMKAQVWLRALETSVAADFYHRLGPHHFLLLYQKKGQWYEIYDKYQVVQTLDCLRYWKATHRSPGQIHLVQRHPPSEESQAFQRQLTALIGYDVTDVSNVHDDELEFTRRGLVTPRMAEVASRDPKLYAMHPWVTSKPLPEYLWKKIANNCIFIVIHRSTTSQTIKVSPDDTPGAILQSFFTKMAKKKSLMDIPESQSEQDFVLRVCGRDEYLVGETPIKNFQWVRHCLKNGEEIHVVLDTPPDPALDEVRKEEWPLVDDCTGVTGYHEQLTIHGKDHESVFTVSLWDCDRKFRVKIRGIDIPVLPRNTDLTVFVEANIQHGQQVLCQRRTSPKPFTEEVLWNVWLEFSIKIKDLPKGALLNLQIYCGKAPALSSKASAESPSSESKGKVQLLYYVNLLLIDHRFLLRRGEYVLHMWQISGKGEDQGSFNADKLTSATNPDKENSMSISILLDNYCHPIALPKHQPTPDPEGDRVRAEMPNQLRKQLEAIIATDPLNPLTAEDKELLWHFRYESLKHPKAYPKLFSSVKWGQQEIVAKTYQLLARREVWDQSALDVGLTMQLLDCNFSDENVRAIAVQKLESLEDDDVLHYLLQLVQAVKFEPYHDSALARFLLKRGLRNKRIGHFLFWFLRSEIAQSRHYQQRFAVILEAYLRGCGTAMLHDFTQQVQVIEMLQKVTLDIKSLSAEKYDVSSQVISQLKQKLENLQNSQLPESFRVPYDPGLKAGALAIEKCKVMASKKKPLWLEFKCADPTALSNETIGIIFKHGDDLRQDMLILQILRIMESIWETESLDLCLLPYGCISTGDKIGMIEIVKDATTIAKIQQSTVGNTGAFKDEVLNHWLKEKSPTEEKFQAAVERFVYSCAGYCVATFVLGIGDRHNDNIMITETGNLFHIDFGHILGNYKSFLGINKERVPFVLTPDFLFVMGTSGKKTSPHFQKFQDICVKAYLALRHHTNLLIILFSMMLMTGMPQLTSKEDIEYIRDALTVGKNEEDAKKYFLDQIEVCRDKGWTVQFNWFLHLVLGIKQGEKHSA
Chain of CYP2D6 (P10635 whole entry): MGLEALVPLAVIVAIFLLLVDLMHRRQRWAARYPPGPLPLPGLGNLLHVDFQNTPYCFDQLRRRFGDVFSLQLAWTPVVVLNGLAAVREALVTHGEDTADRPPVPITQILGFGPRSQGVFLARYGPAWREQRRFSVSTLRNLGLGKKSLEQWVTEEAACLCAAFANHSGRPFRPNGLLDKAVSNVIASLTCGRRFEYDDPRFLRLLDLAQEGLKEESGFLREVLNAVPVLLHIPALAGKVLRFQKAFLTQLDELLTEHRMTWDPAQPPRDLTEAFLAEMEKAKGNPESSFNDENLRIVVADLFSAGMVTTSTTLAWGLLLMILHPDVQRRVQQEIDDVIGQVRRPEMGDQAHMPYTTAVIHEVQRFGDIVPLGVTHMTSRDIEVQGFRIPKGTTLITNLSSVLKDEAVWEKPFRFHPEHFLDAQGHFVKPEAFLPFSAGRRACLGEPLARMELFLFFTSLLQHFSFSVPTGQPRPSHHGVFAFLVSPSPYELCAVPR
Chain of CYP3A4 (P08684 whole entry): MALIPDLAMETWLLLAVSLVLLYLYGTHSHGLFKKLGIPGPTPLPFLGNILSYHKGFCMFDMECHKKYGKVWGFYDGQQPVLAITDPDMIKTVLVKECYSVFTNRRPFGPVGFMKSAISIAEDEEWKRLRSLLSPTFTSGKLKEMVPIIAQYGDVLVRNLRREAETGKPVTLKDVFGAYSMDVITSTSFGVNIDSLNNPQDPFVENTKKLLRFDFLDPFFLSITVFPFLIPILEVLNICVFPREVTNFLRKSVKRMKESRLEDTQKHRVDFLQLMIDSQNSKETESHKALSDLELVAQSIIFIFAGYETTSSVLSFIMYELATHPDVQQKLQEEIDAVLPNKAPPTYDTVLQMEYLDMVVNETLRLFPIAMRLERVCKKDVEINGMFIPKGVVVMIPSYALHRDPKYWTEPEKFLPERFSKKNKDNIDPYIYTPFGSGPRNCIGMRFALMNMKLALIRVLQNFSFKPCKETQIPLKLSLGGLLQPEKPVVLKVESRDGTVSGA

Turning to `COCCNC(=O)c1nc2c(N3CCOCC3)nc(-c3cnc(N)nc3)cn2c1C`, the Ki in data set [1] was found to be 94.1 nM; in data set [2], 8 nM; in [3], 62.9 nM. The Activity in [4] is recorded as above 70%. Further, the inhibition in vivo at 25 mg/kg in [5] was 61%. For the same molecule, the outcome in data set [6] and in data set [7] was Active. Besides, in [8], the inhibition in vivo at 10 mg/kg came out at 58%.
For `COCCNC(=O)c1cn2cc(-c3cnc(N)nc3)nc(N3CCOCC3)c2n1`, the IC50 turned out to be 14 nM in data set [9], 2290 nM in data set [10] and 2.7 nM in [11].
`Nc1ncc(-c2cn3cc(C(=O)NC4CCOCC4)nc3c(N3CCOCC3)n2)cn1` had an IC50 in data set [10] of 751 nM.
Consider `COCCCNC(=O)c1cn2cc(-c3cnc(N)nc3)nc(N3CCOCC3)c2n1`, for which the values for the IC50 in data set [9], in [10] and in data set [11] were 26 nM, above 5000 nM and 3.2 nM, respectively.
Take `Nc1ncc(-c2cn3cc(C(=O)NCCN4CCOCC4)nc3c(N3CCOCC3)n2)cn1`: the IC50 was 34.3 nM in [9], above 5000 nM in [10] and 10.4 nM in data set [11].
As to `Nc1ncc(-c2cn3cc(C(=O)N[C@H]4CC[C@H](O)CC4)nc3c(N3CCOCC3)n2)cn1`, in data set [12], the Ratio IC50 was above 50. The figures for the IC50 in [9] and in data set [10] were 70 nM and 989 nM, respectively.
Regarding `NC(=O)c1cn2cc(-c3cnc(N)nc3)nc(N3CCOCC3)c2n1`, the Papp A→B at 2.5 h, 2 µM in data set [13] was found to be 15.4 ×10⁻⁶ cm/s. Also, the efflux ratio at 2.5 h, 2 µM in data set [14] turned out to be 0.9. In addition, the inhibition at 10 µM in [15] was 17%; in data set [16] it was 8%; in data set [17], 5%; in data set [18] it was 24%; in data set [19], 13%. Besides, the remaining at 0.25 h, 1 µM in data set [20] is 92%; in data set [21], 90%. Moreover, the Ratio IC50 in [12] was above 50. The IC50 in data set [9] stood at 1.8 nM; in data set [10], 237 nM; in data set [11] it was 0.4 nM.
For `CN(C)CCNC(=O)c1cn2cc(-c3cnc(N)nc3)nc(N3CCOCC3)c2n1`, the IC50 in data set [9] was 30.3 nM; in data set [10], above 5000 nM; in data set [11], 4.6 nM.
For `CN(C)CCCNC(=O)c1cn2cc(-c3cnc(N)nc3)nc(N3CCOCC3)c2n1`, the IC50 in data set [9] is 8.7 nM; in [10], above 5000 nM; in [11], 0.6 nM.
For the molecule `COCCNC(=O)c1cn2c(Cl)c(-c3cnc(N)nc3)nc(N3CCOCC3)c2n1`, the results for the IC50 in data set [9] and in data set [11] were 35.1 nM and 11.2 nM, respectively.
In [9], `CN(C)CCCNC(=O)c1cn2cc(-c3cccc4[nH]ncc34)nc(N3CCOCC3)c2n1` had an IC50 of 429 nM.

For the origin of these results see ChEMBL document CHEMBL2057167, “Rapid identification of ETP-46992, orally bioavailable PI3K inhibitor, selective versus mTOR” (Bioorg Med Chem Lett, 2012).
